{"source": "patent US20020119146A1", "about": "“TREATMENT OF DIABETES” (priority 1994, published 2002)", "key": {"normal volunteers": {"system": "normal volunteers", "assay": "Sustacal meal preceded by subcutaneous GLIP in normal volunteers (Example 4)", "type": "in vivo, human", "from_the_text": "Results are shown in FIG. 4. *indicates statistically significant differences between treatments (p<0.05)."}, "humans and other mammals": {"system": "humans and other mammals", "conditions": "cited from earlier work"}, "Type I diabetic subjects": {"system": "Type I diabetic subjects", "assay": "Sustacal meal preceded by subcutaneous GLIP in Type I diabetics (Example 5)", "type": "in vivo, human", "conditions": "100 μg GLIP subcutaneously prior to Sustacal meal", "from_the_text": "Type I diabetic subjects were studied.\nThe results are shown in FIG. 5. indicates statistically significant differences between treatments (p<0.05)."}, "Type 1 diabetic subject": {"system": "Type 1 diabetic subject", "assay": "Subcutaneous GLIP along with insulin before Sustacal meal (Example 6)", "quoted_text": "One Type 1 diabetic subject was given GLIP along with insulin and the effects on post-prandial glycaemia observed. The subject received 5 units of insulin and 50 μg GLIP as subcutaneous injections immediately prior to ingestion of a Sustacal meal as described in Example 1. Blood levels of GLIP were monitored by a standard radioimmunoassay method."}, "[1]": {"system": "subjects with remission phase Type I diabetes", "assay": "Sustacal meal with intravenous GLIP infusion (Example 1)", "type": "in vivo, human", "method": "7 subjects with remission phase Type I diabetes were studied after ingestion of a standardised meal of Sustacal (Upjohn) (delivering […]). Subjects continued their normal insulin treatment programme on the day prior to the test and, on the day of the test, omitted their morning insulin injection and arrived fasting at 8:00 am. […] Infusion was continued for 120 minutes. Blood levels of glucose, C-peptide, gastrin, glucagon and HPP were monitored by standard radioimmunoassay methods in samples taken before and at intervals during the study, up to 180 minutes. On another test day, subjects were given the Sustacal meal alone and the same analytes were similarly monitored."}, "Type II diabetics": {"system": "Type II diabetics", "conditions": "cited from earlier work"}, "[2]": {"system": "subjects with remission phase Type I diabetes", "assay": "Sustacal meal with lower-dose GLIP infusion (Example 3)", "type": "in vivo, human", "conditions": "infusion 0.75 pmol/kg/min for 120 minutes after Sustacal meal, versus saline infusion; FIG. 3", "method": "Four subjects with remission phase Type I diabetes were studied during infusion with 0.75 pm/kg/min-GLIP for 120 minutes after a Sustacal meal.\nThe test was conducted as described in Example 1 and blood glucose and C-peptice levels were measured. On a further test day, the subjects were studied during saline infusion after a similar Slistacal meal."}, "[3]": {"conditions": "subcutaneous injection of 00 gg GLIP immediately before Sustacal meal"}}, "note": "Entries after “also recorded” stand apart in the source; their conditions may differ."}
{"substance": "Glucagon-like peptide 1(7-36)amide [GLIP]", "values": [{"measurement": "delays in increase in blood levels of glucose, HPP, C-peptide and insulin", "setting": "normal volunteers; experiment repeated with 50 Ag dose of GLIP", "value": "proportionally shorter"}, {"measurement": "delays in increase in blood levels of glucose, HPP, C-peptide and insulin", "setting": "normal volunteers; experiment repeated with 200 Ag dose of GLIP", "value": "longer"}, {"measurement": "increase in blood levels of C-peptide", "setting": "normal volunteers; [3]", "value": "delay in increase"}, {"measurement": "increase in blood levels of HPP", "setting": "normal volunteers; [3]", "value": "delay in increase"}, {"measurement": "increase in blood levels of glucose", "setting": "normal volunteers; [3]", "value": "delay in increase"}, {"measurement": "increase in blood levels of insulin", "setting": "normal volunteers; [3]", "value": "delay in increase"}, {"measurement": "gastric emptying", "setting": "humans and other mammals", "value": "delay of gastric emptying"}, {"measurement": "blood glucose levels compared to control (no GLIP)", "setting": "Type I diabetic subjects; morning insulin omitted, FIG. 5 Panel A", "value": "lowering of blood glucose levels"}, {"measurement": "pancreatic polypeptide (HPP) levels", "setting": "Type I diabetic subjects; FIG. 5 Panel D", "value": "delayed rise in pancreatic polypeptide (HPP) levels"}, {"measurement": "insulin secretion over control levels", "setting": "Type I diabetic subjects; FIG. 5 Panels B and C", "value": "no enhancement of insulin secretion over control levels"}, {"measurement": "clearance of GLIP from the blood", "setting": "Type 1 diabetic subject; 50 μg GLIP subcutaneously with 5 units insulin, radioimmunoassay, FIG. 6 Panel E", "value": "cleared from the blood in about two hours"}, {"measurement": "blood glucose after standard meal", "setting": "Type 1 diabetic subject; 50 gg GLIP with 5 units insulin (half the usual dose) subcutaneously before Sustacal meal, one subject, FIG. 6 Panel A", "value": "≤ 8", "unit": "mM"}, {"measurement": "gastrin response / gastrin levels", "setting": "[1]; IV infusion 1.2 pm/kg/min after Sustacal meal, FIG. 1 Panel E", "value": "normal ga.trin response; also recorded: not significantly affected"}, {"measurement": "blood glucose level after a meal", "setting": "[1]; IV infusion 1.2 pm/kg/min for 120 minutes after Sustacal meal, FIG. 1 Panel A", "value": "excellent control of blood glucose level"}, {"measurement": "secretion of pancreatic polypeptide (PP) after Sustacal meal", "setting": "[1]; IV infusion 1.2 pm/kg/min, FIG. 1 Panel C", "value": "this response was absent during GLIP infusion"}, {"measurement": "effect between the peptide and oral hypoglycaemic agents", "setting": "Type II diabetics", "value": "synergistic effect"}, {"measurement": "increase in blood glucose", "setting": "[2]", "value": "increase in glucose was less than in the control experiment"}, {"measurement": "rise in C-peptide", "setting": "[2]", "value": "rise in C-peptide was similar to the control experiment"}]}
